What was measured:
Test in all cases: Time to kill comparison
Format in all cases: cell-based
Candida albicans = conditions: 128 ppm; for exposure time to complete kill: C. albicans, challenge 10^4-10^5 CFU/mL; for Number of Microbial Colonies: Candida albicans, 5 replicates, TNTC = too numerous to count
Method: (§1) Alexidine and Chlorhexidine, both at a concentration of 128 ppm were exposed to a Gram positive bacteria (Staphylococcus aureus), a Gram negative bacteria (Pseudomonas aeruginosa), and a fungus (Candida albicans). The challenge concentration for each organism was 10^4-10^5 CFU/mL, and the exposure time varied from 0.5-60 minutes. […] Complete kill of all three organisms was observed within 0.5-1 minute of Alexidine exposure.

Pseudomonas aeruginosa = conditions: P. aeruginosa, 128 ppm, challenge 10^4-10^5 CFU/mL
Method: as §1

Staphylococcus aureus = conditions: 128 ppm; for exposure time to complete kill: S. aureus, challenge 10^4-10^5 CFU/mL; for Number of Microbial Colonies: Staphylococcus aureus, 5 replicates, TNTC = too numerous to count
Method: as §1

SMILES | exposure time to complete kill (Candida albicans) [min] | exposure time to complete kill (Pseudomonas aeruginosa) [min] | exposure time to complete kill (Staphylococcus aureus) [min] | Number of Microbial Colonies (Candida albicans; exposure 0.5 minutes) | Number of Microbial Colonies (Candida albicans; exposure 1 minute) | Number of Microbial Colonies (Candida albicans; exposure 5 minutes) | Number of Microbial Colonies (Staphylococcus aureus; exposure 0.5 minutes) | Number of Microbial Colonies (Staphylococcus aureus; exposure 1 minute) | Number of Microbial Colonies (Staphylococcus aureus; exposure 5 minutes)
CCCCC(CC)CNC(=N)NC(=N)NCCCCCCNC(=N)NC(=N)NCC(CC)CCCC (stereo not drawn) [Alexidine] | 0.5 to 1 | 0.5 to 1 | 0.5 to 1 |  |  |  |  |  | 
[H]/N=C(\N/C(=N/[H])NCCCCCCNC(=N)NC(=N)Nc1ccc(Cl)cc1)Nc1ccc(Cl)cc1 [Chlorhexidine] | 60 | 5 | 60 | TNTC | TNTC | TNTC | TNTC | TNTC | TNTC

— patent US20210178009A1, “WOUND CARE PRODUCTS COMPRISING ALEXIDINE” (TELEFLEX MEDICAL INCORPORATED, priority 2015, published 2021)
